Where two headings read alike, the source gives them in different places.
What was measured:
[1] = assay type: in vivo, human
human CYP1A2 = human CYP1A2 (Homo sapiens, UniProt P05177); assay: Phe inhibition of human CYP1A2, P450-Glo assay; assay type: biochemical
[2] = test system: Salmonella strains TA100, TA 97a, TA98 and TA102; conditions: cited from earlier work
[3] = [14C]-BaP metabolite in human plasma, 0-48 h, BaP + Phe dose, mean ± SD
[4] = [14C]-BaP metabolite in human plasma, 0-48 h, BaP only dose, mean ± SD
[5] = [14C]-BaP metabolite in human plasma, BaP + Phe dose, mean ± SD
[6] = [14C]-BaP metabolite in human plasma, BaP only dose, mean ± SD

Chain of human CYP1A2 (P05177 whole entry): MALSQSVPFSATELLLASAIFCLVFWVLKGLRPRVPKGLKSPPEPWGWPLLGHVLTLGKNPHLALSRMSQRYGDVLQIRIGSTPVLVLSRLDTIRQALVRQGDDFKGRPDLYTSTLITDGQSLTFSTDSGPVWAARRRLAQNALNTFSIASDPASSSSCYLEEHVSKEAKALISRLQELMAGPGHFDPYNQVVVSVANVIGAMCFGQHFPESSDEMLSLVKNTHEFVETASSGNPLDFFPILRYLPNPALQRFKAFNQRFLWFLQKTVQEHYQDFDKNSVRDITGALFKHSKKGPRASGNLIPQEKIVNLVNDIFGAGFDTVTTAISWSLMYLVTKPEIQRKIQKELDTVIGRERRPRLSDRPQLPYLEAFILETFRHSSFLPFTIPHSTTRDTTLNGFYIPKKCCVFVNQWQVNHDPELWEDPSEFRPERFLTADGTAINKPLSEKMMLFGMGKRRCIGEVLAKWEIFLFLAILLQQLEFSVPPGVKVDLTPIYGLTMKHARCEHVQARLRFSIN

SMILES	AUC [1, 3] [fg BaP/mL×h]	AUC [1, 4] [fg BaP/mL×h]	AUC(0,∞) [1, 5] [fg BaP/mL×h]	Cmax [1, 5] [fg BaP/mL]	T1/2 [1, 5] [h]	Tmax [1, 5] [h]	AUC(0,∞) [1, 6] [fg BaP/mL×h]	Cmax [1, 6] [fg BaP/mL]	T1/2 [1, 6] [h]	Tmax [1, 6] [h]	other results
O[C@H]1C=Cc2c(cc3ccc4cccc5ccc2c3c45)[C@@H]1O (racemic) [7,8-dihydrodiol, (±) trans-benzo[a]pyrene-7,8-dihydrodiol]	10.53 ± 9.26	28.04 ± 34.04	10.53 ± 9.26	2.54 ± 2.07	2.25 ± 0.55	2.3 ± 1.2	28.04 ± 34.04	4.12 ± 3.04	4.72 ± 4.18	1.7 ± 0.8	–
Oc1ccc2ccc3c4ccccc4cc4ccc1c2c43 [3-OH]	5.90 ± 4.33	9.99 ± 7.43	5.90 ± 4.33	2.00 ± 1.03	1.59 ± 0.36	2.2 ± 0.8	9.99 ± 7.43	4.85 ± 3.31	1.85 ± 0.56	1.7 ± 0.8	–
Oc1ccc2cc3ccc4cccc5ccc(c2c1)c3c45 [9-OH]	0.74 ± 0.82	3.40 ± 3.83	0.74 ± 0.82	0.66 ± 0.38	1.40 ± 0.49	2.0 ± 0.7	3.40 ± 3.83	2.32 ± 2.36	1.33 ± 0.39	1.4 ± 0.7	–
c1ccc2c(c1)ccc1ccccc12 [Phe, phenanthrene]	–	–	–	–	–	–	–	–	–	–	Ki (human CYP1A2): 12.6 µM; type of inhibition of hCYP1A2 (human CYP1A2; Lineweaver-Burk plot): competitive
Cc1cccc2c1ccc1cc(C(C)C)ccc12 [Retene, 7-isopropyl-1-methylphenanthrene]	–	–	–	–	–	–	–	–	–	–	mutagenicity [2]: negative
c1ccc2c(c1)cc1ccc3cccc4ccc2c1c34 [[^14C]-BaP, benzo[a]pyrene]	–	–	–	–	–	–	–	–	–	–	Cl ([1]; both, human, in vivo): 3707 ± 2267 L/h; Vd ([1]; both, human, in vivo): 17550 ± 9725 L; half-life ([1]; both, human, in vivo, T1/2): 4.78 ± 4.45 h; Tmax ([1]; both, human, in vivo, Tmax): 1.1 ± 1.1 h; half-life ([1]; both, human, in vivo, po, T1/2 in blood): 1.1 ± 1.1 h; AUC ([1]; human, in vivo): 17.88 ± 9.56 fg BaP/mL×h; AUC(0,∞) ([1]; human, in vivo): 17.88 ± 9.56 fg BaP/mL×h
